In the case of `CC1(C)OC(=O)Nc2c(Br)cc(-c3ccc(F)c(Cl)c3)cc21` [Example 123, 8-Bromo-6-(3-chloro-4-fluorophenyl)-4,4-dimethyl-1,4-dihydro-2H-3,1-benzoxazin-2-one], the melting point is reported as 194 to 195 °C.
With `CC1(C2CC2)OC(=O)Nc2ccc(-c3cccc(Cl)c3)cc21` (stereo not shown) [Example 41, 6(3-Chloro-phenyl)-4-cyclopropyl-4-methyl-1,4-dihydro-benzo [d][1,3]oxazin-2-one] the melting point was 158 to 159 °C.
Compound `CC1(C)OC(=O)Nc2ccc(-c3cccc([N+](=O)[O-])c3)cc21` [Example 13, 4,4Dimethyl6-(3-nitrophenyl)-1,4dihydrobenzo[d][1,3]oxazin-2-one] has a melting point of 244 to 245 °C.
In the case of `CC1OC(=O)Nc2ccc(-c3cccc(F)c3)cc21` (stereo not shown) [Example 127, 6-(3-Fluorophenyl)-4-methyl-1,4-dihydro-2H-3,1-benzoxazin-2-one], the melting point is reported as 160 to 161 °C.
With `COc1ccc(-c2ccc3c(c2)C(C)(C)OC(=O)N3)cc1F` [Example 138, 6-(3-Fluoro-4-methoxy-phenyl)4,4-dimethyl-1,4-dihydro-benzo[d][1,3]-oxazin-2-one] the melting point was 210 to 211 °C.
With `O=C1Nc2ccc(-c3cccc(Cl)c3)cc2C2(CCCC2)O1` [Example 31, 6-(3-Chlorophenyl)-spiro-[4H-3,1-benzoxazine-4,1′-cyclopentane]-2(1H)-one] the melting point was 140 to 145 °C.
With `CC1(C)OC(=O)Nc2ccc(-c3cc(CC#N)ccc3F)cc21` [Example 134, 3-(4,4-Dimethyl-2-oxo-1,4-dihydro2H-benzo[d][1,3]-oxazin-6-yl)-4-fluoro-phenylacetonitrile] the melting point was 184 to 187 °C.
In the case of `CCc1cc(C#N)sc1-c1ccc2c(c1)C(C)(C)OC(=O)N2` [Example 111, 5(4,4-Dimethyl-2-oxo-1,4-dihydro-2H-benzo[d][1,3]oxazin-6-yl)-4-ethyl-thiophene-2-carbonitrile], the melting point is reported as 160 to 162 °C.
`CC1(c2ccccc2)OC(=O)Nc2ccc(-c3cccc(Cl)c3)cc21` (stereo not shown) [Example 39, 6-(3-Chlorophenyl)-4-methyl-4-phenyl-1,4dihydro-benzo[d][1,3]oxazin-2-one] gave a melting point of 179 to 180 °C.
Work on `CC1(C)OC(=O)Nc2ccc(-c3cc(C#N)cc(OC(F)(F)F)c3)cc21` [Example 59, 3-(4,4-Dimethyl-2-oxo-1,4-dihydro-2H-benzo[d][1,3]oxazin-6-yl)-5-trifluoromethoxy-benzonitrile] yielded a melting point of 227 to 228 °C.
Compound `Cn1c(-c2ccc3c(c2)C(C)(C)OC(=O)N3)ccc1[N+](=O)[O-]` [Example 99, 4,4-Dimethyl-6-(1-methyl-5-nitro-1H-pyrrol-2-yl)-1,4-dihydro-benzo [d][1,3]oxazin-2-one] has a melting point of 180 to 185 °C.
`CN1C(=O)OC(C)(C)c2cc(-c3cccc(Br)c3)ccc21` [Example 126, 6-(3-Bromophenyl)-1,4,4-trimethyl-1,4-dihydro-2H-3,1-benzoxazin-2-one] showed a melting point of 142 to 143 °C.
`CCC1(CC)NC(=O)Oc2ccc(-c3cccc(Cl)c3)cc21` [Example 25, 6-(3-Chlorophenyl)-4,4-diethyl-1,4-dihydrobenzo[d][3,1]oxazin-2-one] gave a melting point of 150 to 151 °C.
`COCN1C(=O)OC(C)(C)c2cc(-c3cc(F)cc(C#N)c3)ccc21` [Example 67, 3-Fluoro-5(1-methoxymethyl-4,4-dimethyl-2-oxo-1,4-dihydro-2H-benzo[d][1,3]oxazin-6-yl)-benzonitrile] gave a melting point of 169 to 171 °C.
`O=C1Nc2ccc(-c3cccc([N+](=O)[O-])c3)cc2C2(CCCCC2)O1` [Example 32, 6-(3—Nitrophenyl)-spiro[4H-3,1-benzoxazine-4,1′-cyclohexan]-2(1H)-one] showed a melting point of 245 to 246 °C.
With `N#Cc1cc(-c2ccc3c(c2)C(C2CC2)(C2CC2)OC(=O)N3)cs1` [Example 53, 4-(4,4-Dicyclopropyl-2-oxo-1,4-dihydro-2H-benzo[d][1,3]oxazin-6yl)-thiophene-2-carbonitrile] the melting point was 244 to 245 °C.
For `CC1(C)OC(=O)Nc2ccc(-c3cccc(C#C[Si](C)(C)C)c3)cc21`, the melting point was 240 to 242 °C.
`CC(C)(C)OC(=O)N1C(=O)OC(C)(C)c2cc(-c3cc(F)cc(C#N)c3)ccc21` [Example 86, 6-(3-Cyano-5fluoro-phenyl)-4,4-dimethyl-2oxo-4H-benzo[d][1,3]oxazine-1-carboxylic acid tert-butyl ester] gave a melting point of 139 to 140 °C.
Compound `CC1(C)OC(=O)Nc2ccc(-c3cc(Cl)cc(C#N)c3)cc21` [Example 78, 3-Chloro-5(4,4-dimethyl-2-oxo-1,4-dihydro-2H-benzo[d][1,3]oxazin-6-yl)-benzonitrile] has a melting point of 256 to 257 °C.
Work on `COc1cccc(-c2ccc3c(c2)NC(=O)OC3(C)C)c1` [Example 49, 7-(3-Methoxy-phenyl)-4,4-dimethyl-1,4-dihydro-benzo[d][1,3]-oxazin-2-one] yielded a melting point of 167 to 168 °C.
Compound `CCC1OC(=O)Nc2ccc(-c3cccc(Cl)c3)cc21` (stereo not shown) [Example 10, 6-(3-Chloro-phenyl)-4-ethyl-1,4-dihydro-benzo[d][1,3]oxazin-2-one] has a melting point of 146 to 148 °C.
In the case of `COc1cccc(-c2ccc3c(c2)C(C)(C)OC(=O)N3)c1` [Example 6, 6-(3-Methoxy-phenyl)-4,4dimethyl-1,4-dihydro-benzo[d][1,3]-oxazin-2-one], the melting point is reported as 164 to 165 °C.
`CC1(C)OC(=O)Nc2ccc(-c3ccc(Cl)cc3)cc21` [Example 8, 6-(4-Chloro-phenyl)-4,4-dimethyl-1,4-dihydro-benzo[d][1,3]-oxazin-2-one] showed a melting point of 255 to 257 °C.
For `CC1(C)OC(=O)Nc2ccc(-c3ccccc3CC#N)cc21` [Example 136, 2-(4,4-Dimethyl 2-oxo-1,4-dihydro-2H-benzo[d][1,3]-oxazin-6-yl)phenylacetonitrile], the melting point was 176 to 179 °C.
In the case of `CC1(C)OC(=O)Nc2ccc(-c3cc(F)cc(F)c3)cc21` [Example 60, 6-(3,5-difluoro-phenyl)-4,4-dimethyl-1,4-dihydrobenzo-[d][1,3]oxazin-2-one], the melting point is reported as 218 to 219 °C.
Compound `O=C1Nc2ccc(-c3cccc(Cl)c3)cc2C(c2ccccc2)O1` (stereo not shown) [Example 11, 6-(3-Chloro-phenyl)-4-phenyl-1,4-dihydro-benzo [d][1,3]oxazin-2-one] has a melting point of 177 to 178 °C.
`CC1(C)OC(=O)Nc2ccc(-c3cccc(-c4nccs4)c3)cc21` [Example 81, 4,4-Dimethyl-6(3-thiazol-2-yl-phenyl)-1,4-dihydro-benzo[d][1,3]oxazin-2-one] gave a melting point of 223 to 224 °C.
In the case of `CC1(C)OC(=O)Nc2c(F)cc(-c3ccc(F)c(Cl)c3)cc21` [Example 71, 6-(3-Chloro-4-fluoro-phenyl)-8-fluoro-4,4-dimethyl-1,4-dihydrobenzo[d][1,3]-oxazin-2-one], the melting point is reported as 246 to 248 °C.
`CC1(C)OC(=O)Nc2c(F)cc(-c3cc(F)cc(C#N)c3)cc21` [Example 89, 3-Fluoro-5-(8-fluoro-4,4dimethyl-2-oxo-1,4-dihydro-2H-benzo[d][1,3]oxazin-6-yl)-benzonitrile] showed a melting point of 256 to 257 °C.
In the case of `CC1(C)OC(=O)Nc2ccc(-c3cc([N+](=O)[O-])cc([N+](=O)[O-])c3)cc21`, the melting point is reported as 297 to 298 °C.
`N#Cc1cccc(-c2ccc3c(c2)C2(CCCCC2)OC(=O)N3)c1` [Example 106, 3-(1,2-Dihydro-2-oxospiro[4H-3,1-benzoxazine-4,1-cyclohexan]-6-yl)-benzonitrile] showed a melting point of 245 to 247 °C.

From patent publication US6444668B1 (Wyeth, priority 1999, dated 2002)
